Converted amounts (≈) assume the structure as drawn.
Assays:
SGC-7901 = experiment: Antiproliferative activity against human SGC7901 cells after 48 hrs by MTT assay; type: functional, cell-based; conditions: SGC-7901, 48 h
[1] = molecular target: Telomerase reverse transcriptase (Homo sapiens, UniProt O14746); experiment: Inhibition of telomerase in human SGC7901 cells by TRAP assay; type: cell-based, SGC-7901
Chain of Telomerase reverse transcriptase (O14746 whole entry): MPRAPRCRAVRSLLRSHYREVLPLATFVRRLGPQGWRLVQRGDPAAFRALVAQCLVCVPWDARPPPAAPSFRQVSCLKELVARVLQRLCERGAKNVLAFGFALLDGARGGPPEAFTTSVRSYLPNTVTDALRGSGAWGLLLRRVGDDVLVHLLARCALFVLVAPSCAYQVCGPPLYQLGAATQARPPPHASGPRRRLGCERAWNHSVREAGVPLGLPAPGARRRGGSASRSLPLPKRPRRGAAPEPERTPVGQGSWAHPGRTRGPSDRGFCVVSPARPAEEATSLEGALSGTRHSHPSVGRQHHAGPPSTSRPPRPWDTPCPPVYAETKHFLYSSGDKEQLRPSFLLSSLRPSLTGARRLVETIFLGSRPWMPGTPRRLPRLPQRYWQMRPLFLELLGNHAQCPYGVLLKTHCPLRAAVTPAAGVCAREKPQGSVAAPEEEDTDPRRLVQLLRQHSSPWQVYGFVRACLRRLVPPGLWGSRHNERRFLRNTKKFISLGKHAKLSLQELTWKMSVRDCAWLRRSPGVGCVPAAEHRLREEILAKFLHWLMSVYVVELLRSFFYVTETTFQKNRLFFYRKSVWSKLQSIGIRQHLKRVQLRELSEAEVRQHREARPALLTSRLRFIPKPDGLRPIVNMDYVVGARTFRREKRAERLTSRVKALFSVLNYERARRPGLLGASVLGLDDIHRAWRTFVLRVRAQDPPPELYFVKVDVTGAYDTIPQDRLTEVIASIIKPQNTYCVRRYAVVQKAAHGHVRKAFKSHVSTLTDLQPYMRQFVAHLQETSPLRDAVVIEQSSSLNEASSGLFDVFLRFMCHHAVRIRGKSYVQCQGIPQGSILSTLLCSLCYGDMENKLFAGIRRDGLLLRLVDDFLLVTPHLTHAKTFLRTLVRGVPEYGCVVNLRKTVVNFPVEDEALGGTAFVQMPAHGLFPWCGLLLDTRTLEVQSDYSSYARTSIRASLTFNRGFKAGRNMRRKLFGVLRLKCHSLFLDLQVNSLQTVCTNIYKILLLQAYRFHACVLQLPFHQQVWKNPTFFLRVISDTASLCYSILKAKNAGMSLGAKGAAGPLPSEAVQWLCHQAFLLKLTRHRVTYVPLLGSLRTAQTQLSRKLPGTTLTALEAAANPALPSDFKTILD

Compound	IC50 (SGC-7901)	IC50 [1]
CCOc1ccccc1-c1nnc(SCc2ccc(Cl)nc2)o1	10.3 µg/mL (≈ 29.6 µM)	–
Cc1ccccc1-c1nnc(SCc2ccc(Cl)nc2)o1	8.51 µg/mL (≈ 26.8 µM)	–
Clc1ccc(-c2nnc(SCc3ccc(Cl)nc3)o2)cc1	8.62 µg/mL (≈ 25.5 µM)	–
Clc1ccc(CSc2nnc(-c3ccccc3Cl)o2)cn1	13.4 µg/mL (≈ 39.8 µM)	–
CC(C)c1ccc(-c2nnc(SCc3ccc(Cl)nc3)o2)cc1	4.32 µg/mL (≈ 12.5 µM)	–
CN(C)c1ccc(-c2nnc(SCc3ccc(Cl)nc3)o2)cc1	8.9 µg/mL (≈ 25.7 µM)	–
COc1ccccc1-c1nnc(SCc2ccc(Cl)nc2)o1	8.2 µg/mL (≈ 24.6 µM)	–
COc1ccc(-c2nnc(SCc3ccc(Cl)nc3)o2)cc1	3.5 µg/mL (≈ 10.5 µM)	–
Fc1ccccc1-c1nnc(SCc2ccc(Cl)nc2)o1	9.12 µg/mL (≈ 28.3 µM)	–
Cc1ccc(-c2nnc(SCc3ccc(Cl)nc3)o2)cc1	3.62 µg/mL (≈ 11.4 µM)	–
Fc1ccc(-c2nnc(SCc3ccc(Cl)nc3)o2)cc1	3.67 µg/mL (≈ 11.4 µM)	–
O=c1[nH]cc(F)c(=O)[nH]1 [FLUOROURACIL]	7.36 µg/mL (≈ 56.6 µM)	–
Nc1ccc(-c2nnc(SCc3ccc(Cl)nc3)o2)cc1	8.48 µg/mL (≈ 26.6 µM)	–
Clc1ccc(CSc2nnc(-c3cccs3)o2)cn1	15.1 µg/mL (≈ 48.7 µM)	–
COc1ccc(-c2nnc(SCc3ccc(Cl)nc3)o2)c(O)c1	1.61 µg/mL (≈ 4.6 µM)	2.3 µM
Oc1ccc(-c2nnc(SCc3ccc(Cl)nc3)o2)cc1	> 20 µg/mL	–
COc1ccc(-c2nnc(SCc3ccc(Cl)nc3)o2)cc1OC	4.48 µg/mL (≈ 12.3 µM)	–
Clc1ccc(CSc2nnc(-c3ccccn3)o2)cn1	12.6 µg/mL (≈ 41.3 µM)	–
Clc1ccc(CSc2nnc(-c3ccco3)o2)cn1	14.3 µg/mL (≈ 48.7 µM)	–
Clc1ccc(CSc2nnc(-c3cccc4ccccc34)o2)cn1	2.56 µg/mL (≈ 7.24 µM)	4.2 µM
CCOc1ccc(-c2nnc(SCc3ccc(Cl)nc3)o2)cc1	4.97 µg/mL (≈ 14.3 µM)	–
COc1cc(-c2nnc(SCc3ccc(Cl)nc3)o2)cc(OC)c1OC	10.2 µg/mL (≈ 25.9 µM)	–

From ChEMBL document CHEMBL1275371, “Synthesis, biological evaluation, and molecular docking studies of 2-chloropyridine derivatives possessing 1,3,4-oxadiazole moiety as potential antitumor agents” (Bioorg Med Chem, 2010)
